Assay results from patent US20080267948A1, “Croos-B Structure Binding Compounds” (priority 2005, published 2008).
“Also recorded” adds a separate entry of the source.

Tests used:
ovalbumin = molecular target: T1, ovalbumin (Gallus gallus, UniProt P01012); experiment: Transmission electron microscopy of ovalbumin heated in the presence of small compounds; parameters: species or system chicken; details: 1 mg/ml ovalbumin heated with 1 mg/ml compound
T1 construct: purchased Sigma A5503
T1 sequence (P01012 1-386): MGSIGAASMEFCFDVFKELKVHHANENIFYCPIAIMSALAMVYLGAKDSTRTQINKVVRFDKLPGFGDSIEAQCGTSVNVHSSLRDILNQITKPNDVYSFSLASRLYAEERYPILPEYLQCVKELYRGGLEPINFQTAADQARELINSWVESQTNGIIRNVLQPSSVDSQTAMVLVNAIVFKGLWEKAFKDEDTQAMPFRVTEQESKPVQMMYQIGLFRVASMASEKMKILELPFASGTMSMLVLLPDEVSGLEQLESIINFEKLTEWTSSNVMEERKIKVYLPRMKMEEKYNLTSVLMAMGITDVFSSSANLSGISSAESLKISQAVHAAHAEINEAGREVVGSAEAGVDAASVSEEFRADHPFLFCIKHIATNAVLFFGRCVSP
Outline: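 Ovalbumin at 1 mg/ml was applied to carbon-coated Formvar copper grids, washed with PBS and water, then stained 2 min in 2% methylcellulose with 0.4% uranyl acetate, pH 4. Grids were dried and imaged by TEM at 80 kV.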

[1] = test system: misfolded proteins (Hb-AGE, Aβ); experiment: Binding of misfolded proteins from solution to immobilized small compounds (overall); details: compounds coated on ELISA plates, Hb-AGE or Aβ in solution
Protocol: To test the ability of the twelve selected compounds (see Table 7) to bind to misfolded proteins, the compounds were immobilized at 10/100/1000 μg/ml in the wells of 96-wells Greiner Microlon high binding plates, Nunc amino Immobilizer plates and Nunc Maxisorp plates. Compounds were coated in 100 mM NaHCO3 pH 9.6, 50 μl/well, 1 h at room temperature with agitation. As a control, wells were coated with buffer only. After blocking of the plates, wells were overlayed with solutions of 0.1/1/10 μg/ml Hb-AGE or 10/100 μg/ml Aβ, in binding buffer (PBS/0.1% Tween20). After washing, binding of Hb-AGE was assessed by overlaying wells with 1 μg/ml hybridoma antibody 4B5, which binds to glycations(^2), followed by RAMPO. Binding of Aβ was visualized using 500× diluted anti-Aβ antibodies (mouse antibody beta-amyloid Clone 6F/3D #M0872, lot 00003503, DAKOCytomation; β-amyloid (H-43) SC-9129, 200 μg/ml rabbit polyclonal IgG, Santa Cruz Biotechnology) and RAMPO/SWARPO in a 1:1 ratio. Finally, wells were overlayed with OPD/H2O2 solution, and H2SO4, before absorbance readings at 490 nm.

heat-denatured ovalbumin = molecular target: T2, heat-denatured ovalbumin (Gallus gallus, UniProt P01012); experiment: Thioflavin T fluorescence of ovalbumin and small compounds; parameters: species or system chicken
T2 construct: purchased Sigma A5503
T2 sequence (P01012 1-386): T1 sequence (P01012 1-386)
Outline: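 Heat-denatured ovalbumin at 1 mg/ml in PBS, alone, with 1% v/v DMSO or with 1 mg/ml compound (also heat-denatured after compound addition), mixed 1:9 with 25 μM ThT in 50 mM glycine pH 9.0. Fluorescence read in duplicate at 435 nm excitation, 485 nm emission.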

[2] = molecular target: T3, heat-denatured misfolded ovalbumin (DOVA) (Gallus gallus, UniProt P01012); experiment: ELISA binding of tPA to immobilized misfolded ovalbumin after pre-incubation with compounds; parameters: species or system chicken; details: for influence on tPA binding to immobilized misfolded OVA: misfolded OVA first overlayed with compound (concentration series), then tPA; for activity at 500 µg/mL: read-out: % tPA binding (after compound incubation), DOVA
T3 construct: purchased Sigma A5503
T3 sequence (P01012 2-386 limits assumed): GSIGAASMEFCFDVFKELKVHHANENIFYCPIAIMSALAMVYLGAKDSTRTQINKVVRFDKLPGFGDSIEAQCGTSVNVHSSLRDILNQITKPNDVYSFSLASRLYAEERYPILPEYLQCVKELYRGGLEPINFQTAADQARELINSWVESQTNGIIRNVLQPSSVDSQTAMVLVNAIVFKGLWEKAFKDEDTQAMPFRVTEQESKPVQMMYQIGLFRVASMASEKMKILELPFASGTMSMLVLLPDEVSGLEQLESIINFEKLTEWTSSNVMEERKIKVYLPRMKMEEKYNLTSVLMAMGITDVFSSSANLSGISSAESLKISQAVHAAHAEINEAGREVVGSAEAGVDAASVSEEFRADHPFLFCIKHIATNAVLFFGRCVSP
Protocol: Compounds were now diluted 10× in PBS/0.1% Tween20 (500 μg/ml compound). […] With this approach a further selection of the compounds was achieved. Now, compounds that at least interact with HB-AGE are selected. With the selection, similar binding assays are performed with misfolded OVA and Aβ. Finally, concentration series of the selected compounds are used in the binding studies.

Hb-AGE = molecular target: T4, Hb-AGE (Homo sapiens, UniProt P68871+P69905); experiment: ELISA binding of tPA to immobilized Hb-AGE after pre-incubation with compounds; details: then tPA; for influence on tPA binding to immobilized Hb-AGE: Hb-AGE first overlayed with compound (concentration series); for % tPA binding (after compound incubation), HbAGE: immobilized Hb-AGE first exposed to 500 μg/ml compound, control = 100
T4 construct: purchased Sigma-Aldrich H7379
T4 sequence (P69905 2-142 limits assumed): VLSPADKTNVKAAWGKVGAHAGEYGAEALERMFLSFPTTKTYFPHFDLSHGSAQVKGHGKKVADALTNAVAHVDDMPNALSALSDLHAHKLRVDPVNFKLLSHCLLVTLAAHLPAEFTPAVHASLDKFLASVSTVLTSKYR
T4 sequence (P68871 2-147 limits assumed): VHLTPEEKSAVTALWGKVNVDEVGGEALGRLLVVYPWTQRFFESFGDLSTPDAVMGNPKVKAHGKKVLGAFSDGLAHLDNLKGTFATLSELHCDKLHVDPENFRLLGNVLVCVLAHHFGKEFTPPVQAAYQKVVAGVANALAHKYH
Protocol: Compounds were now diluted 10× in PBS/0.1% Tween20 (500 μg/ml compound). […] With the selection, similar binding assays are performed with misfolded OVA and Aβ. Finally, concentration series of the selected compounds are used in the binding studies.

Row | Structure (SMILES) | appearance of ovalbumin heated in the presence of compound on TEM image (ovalbumin; hydrate) | capture of misfolded protein from solution by immobilized compound [1] | influence on Thioflavin T fluorescence with misfolded OVA (heat-denatured ovalbumin; 1 mg/ml compound, 1 mg/ml OVA) | reduction in Thioflavin T fluorescence enhancement, compound and OVA heated together (heat-denatured ovalbumin; 1 mg/ml compound, 1 mg/ml OVA, PBS/1% DMSO) | inhibition at 1000 µg/mL (heat-denatured ovalbumin; 1 mg/ml compound, 1 mg/ml OVA, PBS/1% DMSO, read-out: inhibition of Thioflavin T fluorescence, compound mixed with pre-formed misfolded OVA) | formation of Thioflavin T binding sites in heated OVA (heat-denatured ovalbumin; OVA and compound heated together) | influence on tPA binding to immobilized misfolded OVA [2] | influence on tPA binding to immobilized Hb-AGE (Hb-AGE) | appearance of ovalbumin heated in the presence of compound on TEM image (ovalbumin) | activity at 500 µg/mL [2] | % tPA binding (after compound incubation), HbAGE (Hb-AGE)
1 | O=c1oc2c(O)c(O)cc3c(=O)oc4c(O)c(O)cc1c4c23 [compound 117, Ellagic acid hydrate] | less OVA aggregates after heating in the presence of the; also recorded: Clusters of needle-like structures. No aggregates | Capture of misfolded protein from solution | Inhibition on Thioflavin T fluorescence with misfolded OVA | 90% | ~50% | Inhibition of formation of Thioflavin T binding sites in heated | Stimulated tPA binding to immobilized misfolded protein (Hb- | Stimulated tPA binding to immobilized misfolded protein (Hb- |  |  | 
2 | COc1cc2c(cc1OC)-c1c(O)c(OC)cc3c1[C@H](C2)N(C)CC3 [compound 201, Thaliporphine, thalicmidine] |  | Capture of misfolded protein from solution | Inhibition of Thioflavin T fluorescence with misfolded OVA |  |  |  |  | Stimulated tPA binding to immobilized misfolded protein (Hb- | Spherical aggregates with background of smaller | 400% | 110%
3 | COc1cc2c(cc1O)C[C@H]1c3c(cc(OC)c(O)c3-2)CCN1C [compound 202, Isoboldine] |  | Capture of misfolded protein from solution | Inhibition on Thioflavin T fluorescence with misfolded OVA |  |  |  | Stimulated tPA binding to immobilized misfolded protein (Aβ, | Stimulated tPA binding to immobilized misfolded protein (Aβ, | Larger and more dense aggregates than control. Small | 420% | 250%
